In patent US20260000632A1, “STRUCTURALLY MODIFIED FATTY ACIDS FOR IMPROVING GLYCEMIC CONTROL AND TREATING INFLAMMATORY BOWEL DISEASE” (Northsea Therapeutics B.V., priority 2018, published 2026):

How the values were obtained:
[1] = system: active GLP-1; assay: Active GLP-1 during oral glucose tolerance test (OGTT) and at 24 h in lean male SPD rats; format: in vivo, rat
Description: (§1) To establish the acute effects of oral administration of Compound A and Compound B upon active GLP-1 and insulin concentrations, lean (about 300 g) male Sprague-Dawley (SPD) rats were divided into groups (n=6-8) and fed 74 and 84 mg/kg body weight of Compound A or Compound B respectively, either with or without concurrent administration of a dipeptidyl peptidase 4 (DPP-4) inhibitor 60 minutes prior to an oral glucose tolerance test (OGTT) as outlined below. Parallel groups receiving either corn oil alone (corn oil+vehicle, n=10) or corn oil and a DPP-4 inhibitor (“DPP-4 i”) (corn oil+ (DPP-4 i), n=10) were included as controls. The DPP-4 inhibitor was linagliptin.
(§2) A second oral dose of 74 and 84 mg/kg bodyweight of Compound A or Compound B respectively was administered at 240 minutes and ad lib feeding was initiated. A second dose of DPP-4 inhibitor was administered at 480 mins prior to lights out. Blood samples were collected at 24 h for measurement of active GLP-1 and insulin. All values are mean, figures depict mean values (SEM).

[2] = system: plasma insulin; assay: Plasma insulin at 24 h in lean male SPD rats; format: in vivo, rat; details: Compound A 74 mg/kg or Compound B 84 mg/kg oral, non-significant
Description: as §1, §2

[3] = system: B6.V-Lepob/Jrj mice (ob/ob); assay: Glucose tolerance (0-120 mins) after 28-day treatment in ob/ob mice; format: in vivo, mouse; details: 28 days
Description: This study was carried out to assess the effects of chronic treatment with Compound B or Compound A on glucose tolerance in a T2DM rodent model.
For assessing the effects of Compound B, B6.V-Lepob/Jrj mice (ob/ob) mice were administered Compound B at one of 2 doses, 125 and 250 mg/kg for 28 days. […] After the oral glucose load, plasma glucose was measured at multiple time points from and AUC (0-120 mins) for glucose was calculated.

[4] = system: DSS-induced colitis C56BL/6J mice; assay: DSS-induced colitis mouse model (body weight, colon length, survival, histology); format: in vivo; details: for Difference in weight loss between control and treated group / Survival rate 7 days after colitis was induced: 1.5% DSS; for Survival rate 7 days after colitis was induced: C56BL/6J mice (control 50%)
From the text: The dextran sodium sulphate-induced (DSS)-induced colitis model is well known in the art as a reproducible chemical induction of intestinal inflammation animal model. See, e.g., Eichele et al., World J Gastroenterol, 2017, 23(33):6016-6029; Randhawa et al., Korean J. Physiol. Pharmacol. (2014) 18:279-288; Jurjus et al., J. Pharmacol. Toxicol., Methods, 2004, 50:81-92; Gaudio et al., Dig. Dis. Sci., 1999, 44:1458-1475. The DSS-induced colitis model morphologically and symptomatically resembles epithelial damage seen in human IBD, and thus has become the most extensively employed experimental model of intestinal inflammation. Okayasu et al., Gastroenterology, 1990, 98:694-702; Kawada et al., World J. Gastroenterol. 2007, 13:5581-5593. The DSS-induced colitis model is most similar to ulcerative colitis in humans, but also has many similarities to Crohn's disease.
DSS is a water soluble, negatively charged sulfated polysaccharide with a highly variable molecular weight ranging from 5 to 1400 kDa. Murine colitis results from administration of about 1% to 3% DSS to the drinking water of a mouse strain susceptible to DSS-induced colitis. Without being bound by theory, the sulfated polysaccharide may not directly induce intestinal inflammation, but may instead act as a direct chemical toxin to colonic epithelium resulting in epithelial cell injury. It is thought that DSS disrupts the intestinal epithelial monolayer lining, leading to the entry of luminal bacteria and associated antigens into the mucosa and allowing the dissemination of proinflammatory intestinal contents into underlying tissue. […] Perse et al., J. Biomed. Biotechnol., 2012:718617.
The C56BL/6J mouse is a strain susceptible to DSS-induced colitis. To evaluate the efficacy and dosage of Compound B in treatment of DSS-induced colitis, inflammation was induced in 30 9-week old C56BL/6J mice by adding 1.5% DSS to the drinking water for 7 days. The mice were fed a standard chow diet that consisted of 30 weight percent wheat. The mice were divided into three groups of 10, and for each day of DSS administration each group was administered via oral gavage either (1) 100 μL corn oil per day (Control), (2) 126 mg/kg Compound B (dissolved in 100 μL corn oil) per day (“Compound B-Low” or “Compound B-L”), or (3) 252 mg/kg Compound B (dissolved in 100 μL corn oil) per day (“Compound B-High” or “Compound B-H”). Following the 7-day period of DSS induction, mice were sacrificed and their intestinal tissue was used for histopathological and gene expression analysis.
To assess the efficacy of Compound B in the treatment of DSS-induced colitis in mice, the body weight of mice was monitored. Weight loss is an indicator of colitis severity.
To assess the efficacy of Compound B in the treatment of DSS-induced colitis in mice, colon length of test mice was measured. Colon length correlates inversely with inflammation.
Histopathological analysis was performed on sections of formalin-fixed paraffin embedded tissue after hematoxylin and eosin (H&E) staining. Colonic samples were analyzed by histopathology for assignment of scores for colitis activity as described in Neurath et al., J. Exp. Med., 2002, 195:1129-1143. Briefly, the degrees of inflammation and epithelial and mucosal injury on microscopic cross-sections of the colon were graded semi-quantitatively from 0 to 4. For inflammation, a score of 0=no evidence for inflammation; 1=low level of inflammation with scattered infiltrating mononuclear cells (1-2 foci only); 2=moderate inflammation with multiple foci; 3=high level of inflammation with increased vascular density and marked wall thickening; and 4=maximal severity of inflammation with transmural leukocyte infiltration and loss of goblet cells. For injury, a score of 0=no epithelial injury; 1=occasional epithelial lesion; 2=1-2 foci of ulcerations; and 3=extensive ulcerations. […]

[5] = high dose, 252 mg/kg per day, 7 days 1.5% DSS

CC/C=C\C/C=C\C/C=C\C/C=C\C/C=C\CCCCSC(CC)(CC)C(=O)O [Compound B, 2-ethyl-2-((5Z,8Z,11 Z,14Z,17Z)-icosa-5,8,11,14,17-pentaenylthio)butanoic acid]
Increase in active GLP-1 (AUC 0-60 mins) versus corn oil+vehicle ([1]; Compound B 84 mg/kg oral in combination with DPP4 inhibitor (linagliptin), OGTT, p<0.05): > 2 fold
Effect on active GLP-1 concentration at 24 h versus corn oil+vehicle ([1]; in combination with DPP4 inhibitor, Compound A 74 mg/kg or Compound B 84 mg/kg oral, two doses): significantly (p<0.01) increased
Increase in plasma insulin concentration at 24 h versus corn oil+vehicle and corn oil+DPP4 inhibitor ([2]; compound alone): 25%
Increase in plasma insulin concentration at 24 h versus corn oil+vehicle and corn oil+DPP4 inhibitor ([2]; in combination with DPP4 inhibitor): 40%
AUC (0-120 mins) glucose ([3]; 250 mg/kg once-daily oral gavage): potent and highly significant (p<0.001) reduction
Glucose tolerance after 2 g/kg oral glucose load ([3]; both doses, 125 and 250 mg/kg once-daily oral gavage): improved glucose tolerance
Difference in weight loss between control and treated group ([4]; 126 mg/kg per day (Compound B-Low) oral gavage, C56BL/6J mice): statistically significant after 7 days
Difference in weight loss between control and treated group ([4]; 252 mg/kg per day (Compound B-High) oral gavage, C56BL/6J mice): statistically significant after 6 days
Body weight loss compared to control ([4]; 126 and 252 mg/kg per day oral gavage, 7 days 1.5% DSS, C56BL/6J mice): dose-dependent reduction in weight loss
Histology of colon cross-sections in treated mice ([4]; 126 and 252 mg/kg per day, 7 days 1.5% DSS): dose-dependent attenuation of inflammatory infiltrates and edema
Colon length compared to control ([4]; both low (126 mg/kg) and high (252 mg/kg) doses per day, 7 days 1.5% DSS, C56BL/6J mice): significant increase in colon length
Survival rate 7 days after colitis was induced ([4]; high dose, 252 mg/kg per day oral gavage): 100%
Histological cross-sections of colon, morphology [4, 5]: almost complete rescue
Inflammation and epithelial and mucosal injury versus untreated mice [4, 5]: lower
Histological scores of colon versus untreated mice ([4]; high dose, 252 mg/kg per day, 7 days 1.5% DSS, H&E): significantly lower
Survival rate 7 days after colitis was induced ([4]; low dose, 126 mg/kg per day oral gavage): 90%
